These results are taken from PubChem BioAssay AID1259407 (Chemical Carcinogenesis Research Information System (CCRIS), 2018).

Activity calls are given as the source filed them. No rule for the calls is given here.

The data set has as its system CCRIS mutagenicity, Ames/micronucleus/aberration tests. Description: CCRIS mutagenicity studies.
Where [1] appears, read: Test System: AMES SALMONELLA TYPHIMURIUM, Strain/Indicator: TA98, Metabolic Activation: NONE, Method: PREINCUBATION
The mark [2] stands for this setting: Test System: AMES SALMONELLA TYPHIMURIUM, Strain/Indicator: TA100, Metabolic Activation: NONE, Method: PREINCUBATION
[3] abbreviates: Test System: AMES SALMONELLA TYPHIMURIUM, Strain/Indicator: TA1535, Metabolic Activation: NONE, Method: PREINCUBATION

As for `OB(O)O`, the mutagenic call was “active; positive (structural changes)” (End Point: In vitro chromosomal aberrations, Test System: Human peripheral lymphocytes, Metabolic Activation: None); “inactive; negative” (End Point: In vitro micronucleus, Test System: Human peripheral blood lymphocytes, Metabolic Activation: None); “inactive; negative” (Test System: AMES SALMONELLA TYPHIMURIUM, Strain/Indicator: TA98, Metabolic Activation: HAMSTER, LIVER, S-9, AROCLOR 1254, Method: PREINCUBATION); “inactive; negative” under setting [1]; “inactive; negative” (Test System: AMES SALMONELLA TYPHIMURIUM, Strain/Indicator: TA98, Metabolic Activation: NONE, Method: STANDARD PLATE); “inactive; negative” (Test System: AMES SALMONELLA TYPHIMURIUM, Strain/Indicator: TA98, Metabolic Activation: RAT LIVER S-9, PHENOBARBITAL AND BETA-NAPHTHOFLAVONE, Method: PREINCUBATION). In addition, the mutagenic call runs as follows: (Test System: AMES SALMONELLA TYPHIMURIUM, Strain/Indicator: TA98, Metabolic Activation: RAT, LIVER, S-9, AROCLOR 1254, Method: PREINCUBATION) “inactive; negative”; (Test System: AMES SALMONELLA TYPHIMURIUM, Strain/Indicator: TA98, Metabolic Activation: RAT, LIVER, S-9, BETA-NAPHTHOFLAVONE AND PHENOBARBITAL, Method: STANDARD PLATE) “inactive; negative”; (Test System: AMES SALMONELLA TYPHIMURIUM, Strain/Indicator: TA100, Metabolic Activation: HAMSTER, LIVER, S-9, AROCLOR 1254, Method: PREINCUBATION) “inactive; negative”; under setting [2], “inactive; negative”; (Test System: AMES SALMONELLA TYPHIMURIUM, Strain/Indicator: TA100, Metabolic Activation: RAT LIVER S-9, PHENOBARBITAL AND BETA-NAPHTHOFLAVONE, Method: PREINCUBATION) “inactive; negative”; (Test System: AMES SALMONELLA TYPHIMURIUM, Strain/Indicator: TA100, Metabolic Activation: RAT, LIVER, S-9, AROCLOR 1254, Method: PREINCUBATION) “inactive; negative”. Further, the mutagenic call reads like this: (Test System: AMES SALMONELLA TYPHIMURIUM, Strain/Indicator: TA100, Metabolic Activation: RAT, LIVER, S-9, BETA-NAPHTHOFLAVONE AND PHENOBARBITAL, Method: STANDARD PLATE) “inactive; negative”; (Test System: AMES SALMONELLA TYPHIMURIUM, Strain/Indicator: TA102, Metabolic Activation: NONE, Method: STANDARD PLATE) “inactive; negative”; (Test System: AMES SALMONELLA TYPHIMURIUM, Strain/Indicator: TA102, Metabolic Activation: RAT, LIVER, S-9, BETA-NAPHTHOFLAVONE AND PHENOBARBITAL, Method: STANDARD PLATE) “inactive; negative”; (Test System: AMES SALMONELLA TYPHIMURIUM, Strain/Indicator: TA1535, Metabolic Activation: HAMSTER, LIVER, S-9, AROCLOR 1254, Method: PREINCUBATION) “inactive; negative”; under setting [3], “inactive; negative”; (Test System: AMES SALMONELLA TYPHIMURIUM, Strain/Indicator: TA1535, Metabolic Activation: RAT LIVER S-9, PHENOBARBITAL AND BETA-NAPHTHOFLAVONE, Method: PREINCUBATION) “inactive; negative”. Further, the mutagenic call is “inactive; negative” (Test System: AMES SALMONELLA TYPHIMURIUM, Strain/Indicator: TA1535, Metabolic Activation: RAT, LIVER, S-9, AROCLOR 1254, Method: PREINCUBATION); “inactive; negative” (Test System: AMES SALMONELLA TYPHIMURIUM, Strain/Indicator: TA1537, Metabolic Activation: HAMSTER, LIVER, S-9, AROCLOR 1254, Method: PREINCUBATION); “inactive; negative” (Test System: AMES SALMONELLA TYPHIMURIUM, Strain/Indicator: TA1537, Metabolic Activation: NONE, Method: PREINCUBATION); “inactive; negative” (Test System: AMES SALMONELLA TYPHIMURIUM, Strain/Indicator: TA1537, Metabolic Activation: RAT LIVER S-9, PHENOBARBITAL AND BETA-NAPHTHOFLAVONE, Method: PREINCUBATION); “inactive; negative” (Test System: AMES SALMONELLA TYPHIMURIUM, Strain/Indicator: TA1537, Metabolic Activation: RAT, LIVER, S-9, AROCLOR 1254, Method: PREINCUBATION); “inactive; negative” (Test System: AMES SALMONELLA TYPHIMURIUM, Strain/Indicator: TA1538, Metabolic Activation: NONE, Method: PREINCUBATION). In addition, the mutagenic call was “inactive; negative” (Test System: AMES SALMONELLA TYPHIMURIUM, Strain/Indicator: TA1538, Metabolic Activation: RAT LIVER S-9, PHENOBARBITAL AND BETA-NAPHTHOFLAVONE, Method: PREINCUBATION); “inactive; negative” (Test System: E.COLI, Strain/Indicator: WP2UVRA, Metabolic Activation: NONE, Method: PREINCUBATION); “inactive; negative” (Test System: E.COLI, Strain/Indicator: WP2UVRA, Metabolic Activation: RAT LIVER S-9, PHENOBARBITAL AND BETA-NAPHTHOFLAVONE, Method: PREINCUBATION); “inactive; negative” (Test System: MOUSE LYMPHOMA, Strain/Indicator: L5178Y (TK+/TK-), Metabolic Activation: NONE, Method: SUSPENSION/PLATE); “inactive; negative” (Test System: MOUSE LYMPHOMA, Strain/Indicator: L5178Y (TK+/TK-), Metabolic Activation: RAT, LIVER, S-9, AROCLOR 1254, Method: SUSPENSION/PLATE).
As to `CCOc1ccccc1N`, the mutagenic call was “inactive; negative” (Test System: AMES SALMONELLA TYPHIMURIUM, Strain/Indicator: TA97, Metabolic Activation: HAMSTER, LIVER, S-9, AROCLOR 1254 (10 OR 30%), Method: PREINCUBATION); “inactive; negative” (Test System: AMES SALMONELLA TYPHIMURIUM, Strain/Indicator: TA97, Metabolic Activation: NONE, Method: PREINCUBATION); “inactive; negative” (Test System: AMES SALMONELLA TYPHIMURIUM, Strain/Indicator: TA97, Metabolic Activation: RAT, LIVER, S-9, AROCLOR 1254 (10 OR 30%), Method: PREINCUBATION); “inactive; negative” (Test System: AMES SALMONELLA TYPHIMURIUM, Strain/Indicator: TA98, Metabolic Activation: HAMSTER, LIVER, S-9, AROCLOR 1254 (10 OR 30%), Method: PREINCUBATION); “inactive; negative” under setting [1]; “inactive; negative” (Test System: AMES SALMONELLA TYPHIMURIUM, Strain/Indicator: TA98, Metabolic Activation: RAT, LIVER, S-9, AROCLOR 1254 (10 OR 30%), Method: PREINCUBATION). In addition, the mutagenic call reads like this: (Test System: AMES SALMONELLA TYPHIMURIUM, Strain/Indicator: TA100, Metabolic Activation: HAMSTER, LIVER, S-9, AROCLOR 1254 (10%), Method: PREINCUBATION) “inactive; negative”; (Test System: AMES SALMONELLA TYPHIMURIUM, Strain/Indicator: TA100, Metabolic Activation: HAMSTER, LIVER, S-9, AROCLOR 1254 (30%), Method: PREINCUBATION) “inactive; negative”; under setting [2], “inactive; negative”; (Test System: AMES SALMONELLA TYPHIMURIUM, Strain/Indicator: TA100, Metabolic Activation: RAT, LIVER, S-9, AROCLOR 1254 (10%), Method: PREINCUBATION) “inactive; negative”; (Test System: AMES SALMONELLA TYPHIMURIUM, Strain/Indicator: TA100, Metabolic Activation: RAT, LIVER, S-9, AROCLOR 1254 (30%), Method: PREINCUBATION) “inactive; negative”; (Test System: AMES SALMONELLA TYPHIMURIUM, Strain/Indicator: TA1535, Metabolic Activation: HAMSTER, LIVER, S-9, AROCLOR 1254 (10 OR 30%), Method: PREINCUBATION) “inactive; negative”. The mutagenic call by setting is: under setting [3], “inactive; negative”; (Test System: AMES SALMONELLA TYPHIMURIUM, Strain/Indicator: TA1535, Metabolic Activation: RAT, LIVER, S-9, AROCLOR 1254 (10 OR 30%), Method: PREINCUBATION) “inactive; negative”.
